According to ChEMBL document CHEMBL5518158, “Recent advances in triazoles as tyrosinase inhibitors” (Eur J Med Chem, 2023):
Values joined by “and” are separate entries in the source; they are usually repeats but may differ in a detail not shown here. Equal values may be shown once.

target: T1, Mushroom tyrosinase (Agaricus bisporus, UniProt O42713+Q00024+C7FF04+C7FF05); assay: Inhibition of mushroom tyrosinase using L-DOPA as substrate preincubated for 10 mins; type: protein assay

SMILES	IC50
Cn1cnnc1SCc1cc(=O)c(O)co1	19.18 µM
Cc1ccc(-c2nnc(SCc3cc(=O)c(O)co3)n2N)cc1	6.25 µM
O=C(CSc1nnc(-c2ccccc2)n1-c1ccc(F)cc1)Nc1ccc(Br)cc1	0.142 µM
O=c1cc(O)oc(CSc2nnc(-c3ccccc3Cl)n2/N=C/c2ccc(O)c(O)c2)c1	5.2 µM
Cc1nnc(SCc2cc(=O)c(O)co2)n1N	91.03 µM
Nn1c(SCc2cc(=O)c(O)co2)nnc1-c1ccccc1Cl	5.35 µM
Nn1c(SCc2cc(=O)c(O)co2)nnc1-c1ccc(Cl)cc1	4.5 µM
O=C(CSc1nnc(-c2ccc(F)cc2)n1-c1ccc(F)cc1)Nc1ccccc1	0.124 µM
Nn1c(SCc2cc(=O)c(O)co2)nnc1-c1ccccc1Br	5.98 µM
Nn1c(SCc2cc(=O)c(O)co2)nnc1-c1ccccc1	7.45 µM
O=c1cc(O)oc(CSc2nnc(-c3ccccc3)n2NCc2ccc(O)cc2O)c1	1.35 µM
CCCCCn1nc(-c2ccccc2)n(CC(=O)NNC(=O)Nc2ccc(Cl)cc2Cl)c1=O	0.001 µM
O=C(CSc1nnc(-c2ccccc2F)n1-c1ccc(F)cc1)Nc1ccccc1	0.11 µM

target: T1, Mushroom tyrosinase; assay: Inhibition of mushroom tyrosinase using L-DOPA as substrate preincubated for 10 mins followed by substrate addition and measured after 15 mins by spectrophotometric method; type: protein assay

SMILES	IC50
Cc1cccc(CNC(=O)CSc2nnc(Cc3csc(N)n3)n2-c2ccccc2)c1C	2.01 µM
Cc1ccccc1CNC(=O)CSc1nnc(Cc2csc(N)n2)n1-c1ccccc1	0.015 µM
CCc1ccc(CNC(=O)CSc2nnc(Cc3csc(N)n3)n2-c2ccccc2)cc1	0.122 µM
Cc1ccc(CNC(=O)CSc2nnc(Cc3csc(N)n3)n2-c2ccccc2)cc1C	0.113 µM
Cc1cc(C)cc(CNC(=O)CSc2nnc(Cc3csc(N)n3)n2-c2ccccc2)c1	0.24 µM
Cc1cccc(C)c1CNC(=O)CSc1nnc(Cc2csc(N)n2)n1-c1ccccc1	0.05 µM
Nc1nc(Cc2nnc(SCC(=O)NCCc3ccccc3)n2-c2ccccc2)cs1	0.01 µM

target: T1, Mushroom tyrosinase; assay: Inhibition of mushroom tyrosinase using L-DOPA as substrate pre-treated for 10 mins followed by substrate addition measured for 20 mins by spectrophotometric analysis; type: protein assay

SMILES	IC50
Cc1ccccc1CNC(=O)CSc1nnc(Cc2csc(N)n2)n1-c1ccccc1	16.832 µM
CCn1c(Cc2csc(N)n2)nnc1SCc1ccccc1Cl	0.006 µM
CCn1c(Cc2csc(N)n2)nnc1SCc1ccc(Cl)cc1	0.006 µM
CCn1c(Cc2csc(N)n2)nnc1SCc1ccc(Cl)cc1Cl	0.001 µM
CCn1c(Cc2csc(N)n2)nnc1SCc1cccc(Br)c1	0.002 µM

target: T1, Mushroom tyrosinase; assay: Inhibition of mushroom tyrosinase; type: protein assay

SMILES	IC50
Cc1ccc2nc(-c3ccc(OCc4cn(Cc5ccccc5)nn4)cc3)[nH]c2c1	43.3 µM
COc1ccc(/C=N/Nc2nnc(S)n2N)cc1O	3.4 µM
COc1ccccc1-n1c(SCC(=O)Nc2ccc(Br)cc2)nnc1-c1ccccc1F	0.0048 µM
CCc1ccccc1NC(=O)CSc1nnc(CCCc2c[nH]c3ccccc23)n1CC	0.033 µM
C=CCc1ccc(O)c(OC)c1 [EUGENOL]	923 µM
Nn1c(S)nnc1N/N=C/c1cccc(Cl)c1	15 µM
O=C1N=C(Nc2ccccc2)S/C1=C\c1ccc(OCc2cnnn2Cc2ccc(Cl)c(Cl)c2)cc1	49.4 µM
COc1cc(C=O)ccc1O [VANILLIN]	4103 µM
CCn1c(CCCc2c[nH]c3ccccc23)nnc1SCC(=O)Nc1ccccc1C	0.036 µM
O=C1N=C(Nc2ccccc2)S/C1=C\c1ccccc1OCc1cn(Cc2ccccc2)nn1	8.92 µM
Nn1c(S)nnc1N/N=C/c1cccc(C(F)(F)F)c1	9 µM
O=C1N=C(Nc2ccccc2)S/C1=C\c1ccccc1OCc1cn(Cc2cccc(Br)c2)nn1	9.81 µM
COc1ccc2c(c1)CC/C(=C\c1ccc(OCc3cn(Cc4ccccc4F)nn3)c(OC)c1)C2=O	67.18 µM
COc1cc(/C=N/Nc2nnc(S)n2N)ccc1O	14.6 µM
COc1ccccc1-n1c(SCC(=O)Nc2ccccc2)nnc1-c1ccccc1	0.0238 µM
COc1ccc2c(c1)CC/C(=C\c1ccc(OCc3cn(Cc4cccc(Cl)c4)nn3)c(OC)c1)C2=O	4.64 µM
NC(=S)N/N=C/c1ccc(OCc2cn(CC(=O)NCc3ccccc3)nn2)cc1	0.11 µM
O=C1N=C(Nc2ccncc2)S/C1=C\c1ccccc1OCc1cn(Cc2ccc(Cl)c(Cl)c2)nn1	5.9 µM
Cc1ccc(Cn2cc(COc3ccc(-c4nc5ccccc5[nH]4)cc3)nn2)cc1C	9.42 µM
CCOc1ccc(NC(=O)CSc2nnc(CCCc3c[nH]c4ccccc34)n2CC)cc1	0.072 µM
CCn1c(CCCc2c[nH]c3ccccc23)nnc1SCC(=O)Nc1ccc(C)cc1C	0.034 µM
CCn1c(CCCc2c[nH]c3ccccc23)nnc1SCC(=O)Nc1cccc(C)c1C	0.142 µM
O=C1N=C(Nc2ccncc2)S/C1=C\c1ccccc1OCc1cn(Cc2ccccc2Cl)nn1	6.34 µM
Cc1ccc(Cn2cc(COc3ccc(-c4nc5ccccc5[nH]4)cc3)nn2)cc1	10.34 µM
CCn1c(CCCc2c[nH]c3ccccc23)nnc1SCC(=O)Nc1c(C)cccc1C	0.035 µM

target: T2, Mushroom tyrosinase (Agaricus bisporus) (UniProt O42713+Q00024+C7FF04+C7FF05); assay: Inhibition of mushroom tyrosinase at 100 uM relative to control; type: protein assay

SMILES	inhibition
COc1ccc(/C=N/Nc2nnc(S)n2N)cc1O	98%
Nn1c(S)nnc1N/N=C/c1cccc(Cl)c1	81%
Nn1c(S)nnc1N/N=C/c1cccc(C(F)(F)F)c1	95%

target: T1, Mushroom tyrosinase; assay: Inhibition of mushroom tyrosinase using L-dopa as substrate by spectrophotometric method; type: protein assay

SMILES	IC50
Nn1c(S)nnc1N/N=C\c1ccccc1O	1.52 µM
Nn1c(S)nnc1N/N=C\c1cccc(F)c1	12.5 µM
Nn1c(S)nnc1N/N=C\c1cccc(O)c1	7 µM

target: T1, Mushroom tyrosinase; assay: Inhibition of mushroom tyrosinase using L-DOPA as substrate incubated for 20 mins; type: protein assay

SMILES	IC50
COc1ccccc1Cc1n[nH]c(=S)n1/N=C/Cc1ccc(O)cc1	20.27 µM
Fc1ccc(/C=N/n2c(Cc3ccccc3F)n[nH]c2=S)cc1	10.09 µM
Oc1ccccc1Cc1n[nH]c(=S)n1/N=C/c1ccc[nH]1	26.02 µM
Oc1ccc(/C=N/n2c(Cc3ccccc3F)n[nH]c2=S)cc1	6.23 µM

target: T1, Mushroom tyrosinase; assay: Inhibition of mushroom tyrosinase by spectrophotometric method; type: protein assay

SMILES	IC50
CCCCCn1nc(-c2ccccc2)n(CC(=O)NNC(=O)Nc2cc(C(F)(F)F)cc(C(F)(F)F)c2)c1=O	0.001 µM
CCCCCn1nc(-c2ccccc2)n(CC(=O)NNC(=O)Nc2ccccc2C(F)(F)F)c1=O	0.001 µM
CCCCCn1nc(-c2ccccc2)n(CC(=O)NNC(=O)Nc2cccc(C(F)(F)F)c2)c1=O	0.001 µM

target: T1, Mushroom tyrosinase; assay: Binding affinity to mushroom tyrosinase assessed as inhibition constant; type: protein assay

SMILES	Ki
CCCCCn1nc(-c2ccccc2)n(CC(=O)NNC(=O)Nc2ccccc2C(F)(F)F)c1=O	0.01 µM
Cc1cc(C=C2C(=O)NC(=S)NC2=O)c(OCc2cn(Cc3ccc(F)cc3)nn2)cc1Br	60.27 µM
CCCCCn1nc(-c2ccccc2)n(CC(=O)NNC(=S)Nc2ccccc2C(F)(F)F)c1=O	0.1 µM

target: T3, Tyrosinase (Homo sapiens, UniProt P14679); assay: Inhibition of C-terminal His-tagged truncated form of human tyrosinase using L-DOPA as substrate by spectrophotometric assay
T3 sequence (P14679 whole entry): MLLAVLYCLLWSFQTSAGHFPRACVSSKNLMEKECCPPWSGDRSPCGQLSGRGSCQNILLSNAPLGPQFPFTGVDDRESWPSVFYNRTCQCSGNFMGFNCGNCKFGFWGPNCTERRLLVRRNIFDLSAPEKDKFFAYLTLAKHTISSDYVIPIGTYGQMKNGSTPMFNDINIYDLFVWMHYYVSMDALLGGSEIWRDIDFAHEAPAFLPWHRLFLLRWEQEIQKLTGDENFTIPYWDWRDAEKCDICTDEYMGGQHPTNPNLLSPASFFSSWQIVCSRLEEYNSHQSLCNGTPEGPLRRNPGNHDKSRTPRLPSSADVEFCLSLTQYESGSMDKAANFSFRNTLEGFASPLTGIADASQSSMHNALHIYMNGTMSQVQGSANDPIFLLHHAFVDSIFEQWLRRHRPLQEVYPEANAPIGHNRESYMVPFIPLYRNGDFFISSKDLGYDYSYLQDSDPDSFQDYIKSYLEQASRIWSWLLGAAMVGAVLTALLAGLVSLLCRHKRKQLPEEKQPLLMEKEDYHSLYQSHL

SMILES	IC50
O=C1c2ccccc2C(=O)N1Cc1cn(Cc2ccccc2Cl)nn1	47.2 µM
O=C1c2ccccc2C(=O)N1Cc1cn(Cc2ccc(Br)cc2)nn1	40.3 µM
O=C1c2ccccc2C(=O)N1Cc1cn(Cc2ccccc2Br)nn1	26.5 µM
O=C1NC(=S)NC(=O)C1=Cc1ccccc1OCc1cn(Cc2ccc(Br)cc2)nn1	44.2 µM
O=C1c2ccccc2C(=O)N1Cc1cn(Cc2cccc(Cl)c2)nn1	48.3 µM
O=C1c2ccccc2C(=O)N1Cc1cn(Cc2ccccc2[N+](=O)[O-])nn1	26.2 µM

target: T2, Mushroom tyrosinase (Agaricus bisporus); assay: (§1) Inhibition of mushroom tyrosinase using L-DOPA as substrate incubated for 15 mins by spectrophotometric analysis; type: protein assay

SMILES	inhibition
O=c1oc2ccccc2c2c1cnn2Cc1cn(-c2ccccc2)nn1	85%
O=c1oc2ccccc2c2nn(Cc3cn(-c4c(Cl)cc(Cl)cc4Cl)nn3)cc12	58%
O=c1oc2ccccc2c2nn(Cc3cn(-c4ccccc4)nn3)cc12	69%

target: T1, Mushroom tyrosinase; assay: as §1; type: protein assay

SMILES	IC50
O=C1NC(=S)NC(=O)C1=Cc1ccccc1OCc1cn(Cc2ccccc2)nn1	44.2 µM
O=C1NC(=O)C(=Cc2ccccc2OCc2cn(Cc3ccc(Br)cc3)nn2)C(=O)N1	26.8 µM and 49.1 µM
O=C1NC(=O)C(=Cc2ccccc2OCc2cn(Cc3ccccc3)nn2)C(=O)N1	44.2 µM
Cc1cc(C=C2C(=O)NC(=S)NC2=O)c(OCc2cn(Cc3ccc(F)cc3)nn2)cc1Br	24.6 µM

target: T1, Mushroom tyrosinase; assay: Inhibition of mushroom tyrosinase using L-DOPA as substrate measured for 15 mins by spectrophotometer analysis; type: protein assay

SMILES	IC50
COc1ccc(NC(=O)Cn2cc(COc3ccc(/C=N/NC(N)=S)cc3)nn2)cc1	0.25 µM
Cc1c(NC(=O)Cn2cc(COc3ccc(/C=N/NC(N)=S)cc3)nn2)cccc1[N+](=O)[O-]	0.12 µM

target: T3, Tyrosinase; assay: Competitive inhibition of His-tagged human tyrosinase expressed in HEK293 cells; type: cell-based

SMILES	IC50
NC(=S)N/N=C/c1ccc(OCc2cn(Cc3ccc(Cl)c(Cl)c3)nn2)cc1	0.22 µM
Cc1ccc(Cn2cc(COc3ccc(/C=N/NC(N)=S)cc3)nn2)cc1	0.22 µM
NC(=S)N/N=C/c1ccc(OCc2cn(Cc3ccc(F)cc3)nn2)cc1	0.22 µM
Cc1cccc(Cn2cc(COc3ccc(/C=N/NC(N)=S)cc3)nn2)c1	0.22 µM

target: T1, Mushroom tyrosinase; assay: Inhibition of mushroom tyrosinase using L-DOPA as substrate preincubated for 20 mins followed by substrate addition incubated for 10 mins by absorbance based analysis; type: protein assay

SMILES	IC50
Cc1ccc(C(C)C)c(OCc2cn(Cc3cc(=O)c(O)co3)nn2)c1	0.69 µM
Cc1ccc(C(C)C)cc1OCc1cn(Cc2cc(=O)c(O)co2)nn1	0.07 µM
O=c1cc(OCc2cn(Cc3cc(=O)c(O)co3)nn2)c2ccccc2o1	0.02 µM
O=c1ccc2ccc(OCc3cn(Cc4cc(=O)c(O)co4)nn3)cc2o1	0.23 µM
O=c1cc(Cn2cc(COc3ccc4c(c3)OCO4)nn2)occ1O	0.06 µM
COc1cc(C(C)=O)ccc1OCc1cn(Cc2cc(=O)c(O)co2)nn1	0.03 µM
